Measurements from the NIST ThermoML archive (doi:10.1021/je060271a).
“And” between values parts separate entries of the source, which are not always exact repeats. Equal entries are not always repeated. ± gives the expanded uncertainty stated by the source.

Settings: 283.15 K, Liquid, Vibrating tube method

CCCCCC(=O)OCC(COC(=O)CCCCC)(COC(=O)CCCCC)COC(=O)CCCCC [pentaerythritol tetrahexanoate]
mass density (6782.9 kPa): 1008.1 ± 1.2 kg/m3 and 1008 ± 1.2 kg/m3
mass density (6783.1 kPa): 1007.9 ± 1.2 kg/m3 and 1008.1 ± 1.2 kg/m3 and 1008 ± 1.2 kg/m3
mass density (6783.2 kPa): 1008 ± 1.2 kg/m3
mass density (6783.3 kPa): 1008.1 ± 1.2 kg/m3 and 1008 ± 1.2 kg/m3
mass density (6783.4 kPa): 1008.1 ± 1.2 kg/m3 [middle of 4 runs]
mass density (6783.6 kPa): 1008 ± 1.2 kg/m3 and 1008.1 ± 1.2 kg/m3 and 1008.2 ± 1.2 kg/m3
mass density (6783.8 kPa): 1008.1 ± 1.2 kg/m3
mass density (6784.1 kPa): 1008 ± 1.2 kg/m3
mass density (6784.3 kPa): 1008.1 ± 1.2 kg/m3
mass density (6784.5 kPa): 1008 ± 1.2 kg/m3
mass density (6784.6 kPa): 1008.1 ± 1.2 kg/m3
mass density (6784.7 kPa): 1008 ± 1.2 kg/m3 and 1008.1 ± 1.2 kg/m3
mass density (6784.8 kPa): 1008.1 ± 1.2 kg/m3
mass density (6785 kPa): 1008.1 ± 1.2 kg/m3 and 1008.2 ± 1.2 kg/m3
mass density (6785.1 kPa): 1008.1 ± 1.2 kg/m3 and 1008 ± 1.2 kg/m3
mass density (6785.2 kPa): 1008.2 ± 1.2 kg/m3 and 1008.1 ± 1.2 kg/m3
mass density (6785.3 kPa): 1008.1 ± 1.2 kg/m3 and 1008 ± 1.2 kg/m3
mass density (6785.5 kPa): 1007.9 ± 1.2 kg/m3
mass density (6785.7 kPa): 1008 ± 1.2 kg/m3 and 1008.2 ± 1.2 kg/m3 and 1008.1 ± 1.2 kg/m3
mass density (6785.8 kPa): 1008.1 ± 1.2 kg/m3 and 1008 ± 1.2 kg/m3 and 1008.2 ± 1.2 kg/m3
mass density (6786 kPa): 1008.1 ± 1.2 kg/m3 and 1008 ± 1.2 kg/m3
mass density (6786.2 kPa): 1008.1 ± 1.2 kg/m3 and 1008.2 ± 1.2 kg/m3
mass density (6786.3 kPa): 1008.1 ± 1.2 kg/m3
mass density (6786.4 kPa): 1008.1 ± 1.2 kg/m3
mass density (6786.5 kPa): 1008 ± 1.2 kg/m3 and 1008.2 ± 1.2 kg/m3 and 1008.1 ± 1.2 kg/m3
mass density (6786.7 kPa): 1008 ± 1.2 kg/m3 and 1008.1 ± 1.2 kg/m3
mass density (6786.9 kPa): 1008 ± 1.2 kg/m3 and 1008.1 ± 1.2 kg/m3
mass density (6787 kPa): 1008 ± 1.2 kg/m3
mass density (6787.2 kPa): 1008.1 ± 1.2 kg/m3 and 1008 ± 1.2 kg/m3
mass density (6787.4 kPa): 1008 ± 1.2 kg/m3 and 1008.2 ± 1.2 kg/m3 and 1008.1 ± 1.2 kg/m3
mass density (6787.7 kPa): 1008.1 ± 1.2 kg/m3
mass density (6787.9 kPa): 1008 ± 1.2 kg/m3 and 1008.1 ± 1.2 kg/m3
mass density (6788.1 kPa): 1008.2 ± 1.2 kg/m3 and 1008.1 ± 1.2 kg/m3
mass density (6788.2 kPa): 1008 ± 1.2 kg/m3 and 1008.1 ± 1.2 kg/m3
mass density (6788.4 kPa): 1008.1 ± 1.2 kg/m3
mass density (6789.1 kPa): 1008.2 ± 1.2 kg/m3
mass density (6789.2 kPa): 1008 ± 1.2 kg/m3
mass density (6789.4 kPa): 1008 ± 1.2 kg/m3
mass density (6789.5 kPa): 1008 ± 1.2 kg/m3 and 1008.2 ± 1.2 kg/m3 and 1008.1 ± 1.2 kg/m3
mass density (6789.6 kPa): 1008.2 ± 1.2 kg/m3 and 1008.1 ± 1.2 kg/m3 and 1008 ± 1.2 kg/m3
mass density (6789.7 kPa): 1008.1 ± 1.2 kg/m3 and 1008 ± 1.2 kg/m3
mass density (6789.8 kPa): 1008 ± 1.2 kg/m3 and 1008.1 ± 1.2 kg/m3 and 1008.2 ± 1.2 kg/m3
mass density (6789.9 kPa): 1008 ± 1.2 kg/m3
mass density (6795.1 kPa): 1008.1 ± 1.2 kg/m3
mass density (6804.6 kPa): 1008.1 ± 1.2 kg/m3
mass density (6816.7 kPa): 1008 ± 1.2 kg/m3
mass density (6826.4 kPa): 1008 ± 1.2 kg/m3
mass density (6835.7 kPa): 1008.2 ± 1.2 kg/m3
mass density (6845.5 kPa): 1008.1 ± 1.2 kg/m3
mass density (6856.1 kPa): 1008.3 ± 1.2 kg/m3
mass density (6867.3 kPa): 1008.1 ± 1.2 kg/m3
mass density (6879.6 kPa): 1008.1 ± 1.2 kg/m3
mass density (6889.1 kPa): 1008.1 ± 1.2 kg/m3
mass density (6899.3 kPa): 1008.1 ± 1.2 kg/m3
mass density (6909.5 kPa): 1008.1 ± 1.2 kg/m3
mass density (6921.6 kPa): 1008.2 ± 1.2 kg/m3
mass density (6931.7 kPa): 1008.2 ± 1.2 kg/m3
mass density (6941.9 kPa): 1008.1 ± 1.2 kg/m3
mass density (6954.2 kPa): 1008.3 ± 1.2 kg/m3
mass density (6964.7 kPa): 1008.2 ± 1.2 kg/m3
mass density (6975.4 kPa): 1008.1 ± 1.2 kg/m3
mass density (6988.1 kPa): 1008.1 ± 1.2 kg/m3
mass density (6998.9 kPa): 1008.2 ± 1.2 kg/m3
mass density (7009.8 kPa): 1008.1 ± 1.2 kg/m3
mass density (7020.4 kPa): 1008.2 ± 1.2 kg/m3
mass density (7033.3 kPa): 1008.2 ± 1.2 kg/m3
mass density (7043.8 kPa): 1008.3 ± 1.2 kg/m3
mass density (7054.9 kPa): 1008.2 ± 1.2 kg/m3
mass density (7065.4 kPa): 1008.3 ± 1.2 kg/m3
mass density (7078.4 kPa): 1008.2 ± 1.2 kg/m3
mass density (7089.3 kPa): 1008.3 ± 1.2 kg/m3
mass density (7100.3 kPa): 1008.3 ± 1.2 kg/m3
mass density (7113.3 kPa): 1008.3 ± 1.2 kg/m3
